In assay [1] the test system is bile duct PDX. The experiment in a line: Activity against bile duct PDX. It is filed as cell-based. The conditions noted are these: bile duct PDX growth; summary of Table 3. The method, then:
(§1) PDX-derived cell cultures were obtained from tumors explanted from mice and isolated by mechanical and enzymatic dissociation. […] Cells were harvested and seeded in 96-wells plates at a density of 1.25 to 5×10^3 cells/well for cytotoxicity assays. Cells were incubated 48 h at 37° C. prior to addition of test molecules and vehicle (DMSO, 0.1%) at desired final concentrations. Cell viability was assessed before drugs' addition (To) and 5 days after test molecules addition by measuring ATP cell content using CellTiter-Glo® Luminescent Cell Viability Assay (Promega) according to the manufacturer's instructions. Luciferase activity was measured on a luminometer (PerkinElmer® EnVision™). Each concentration of compounds was tested in triplicate.
(§2) Viability was calculated as a percentage of ATP value compared to vehicle treated controls.
(§3) For PDX primary cell cultures, the tumour tissue was washed with PBS containing antibiotic-antimycotic and non-tumour tissue and necrotic tumour tissues were separated. The tumour tissue was transferred to a new dish and cut into 1-2 mm^3 fragments, resuspended in RPMI-1640 medium and centrifuged at 1,200 rpm for 6 min at room temperature. The pelleted material was resuspended with 15 mL of Tumour Cell Digestion Solution and incubated at 37° C. for 1 hour with agitation. Following further addition of media, centrifugation and passage through a […] cell strainer, the homogenous cell mixture was layered onto 15 mL of Ficoll-Paque PLUS in a 50 mL conical tube and centrifuged for 15 min at 1,600 rpm. The interface cells were collected, washed with media, separated by centrifugation at 1,200 rpm. The cell pellet was resuspended in serum free media supplemented with growth factors. 10,000 cells/wells were plated in a 96 well plate and incubated at 37° C., 5% CO2, 95% air and 100% relative humidity overnight. The cytotoxicity assay was conducted as above. IC50 values represent absolute IC50.

Assay [2] concerns esophagus PDX. The experiment in a line: Activity against esophagus PDX. It is filed as cell-based. The conditions noted are these: esophagus PDX growth; summary of Table 10. Here is the method: as §1, §2, §3
Assay [3] deals with endometrial PDX. The experiment in a line: Activity against endometrial PDX. It is filed as cell-based. The note with it: endometrial PDX growth; text summary of Table 9. Here is the method:
as §1, §2, §3

Assay [4] relates to head and neck PDX. The experiment in a line: Activity against head and neck PDX. The conditions noted are these: head and neck PDX growth; Table 11. It is filed as cell-based. Here is the method:
as §1, §2, §3

For assay [5], the system named is kidney PDX. As to the kind of experiment: Activity against kidney PDX. It is filed as cell-based. The note with it: kidney PDX growth; summary of Table 12. The method, then: as §1, §2, §3
For assay [6], the system named is panel of 30 kinases. The experiment in a line: KINOMEscan primary screen. It is filed as binding. The note with it: % Ctrl between 0 and 10 selected for Kd. The method, then: Selected compounds were screened for kinase inhibition using the KINOMEscan™ assay (Eurofins) which is based on a competition binding assay that quantitatively measures the ability of a compound to compete with an immobilized, active-site directed ligand. The assay was performed by combining three components: DNA-tagged kinase; immobilized ligand; and the test compound. The ability of the test compound to compete with the immobilized ligand was measured via quantitative PCR of the DNA tag.
Kinase-tagged T7 phage strains were prepared in an E. coli host derived from the BL21 strain. E. coli were grown to log-phase and infected with T7 phage and incubated with shaking at 32° C. until lysis. The lysates were centrifuged and filtered to remove cell debris. The remaining kinases were produced in HEK-293 cells and subsequently tagged with DNA for qPCR detection. Streptavidin-coated magnetic beads were treated with biotinylated small molecule ligands for 30 minutes at room temperature to generate affinity resins for kinase assays. The liganded beads were blocked with excess biotin and washed with blocking buffer (SeaBlock (Pierce), 1% BSA, 0.05% Tween 20, 1 mM DTT) to remove unbound ligand and to reduce non-specific binding. Binding reactions were assembled by combining kinases, liganded affinity beads, and test compounds in 1× binding buffer (20% SeaBlock, 0.17×PBS, 0.05% Tween 20, 6 mM DTT). Test compounds were prepared as 111× stocks in 100% DMSO. Kds were determined using an 11-point 3-fold compound dilution series with three DMSO control points. All compounds for Kd measurements are distributed by acoustic transfer (non-contact dispensing) in 100% DMSO. The compounds were then diluted directly into the assays such that the final concentration of DMSO was 0.9%. All reactions performed in polypropylene 384-well plate. Each was a final volume of 0.02 ml. The assay plates were incubated at room temperature with shaking for 1 hour and the affinity beads were washed with wash buffer (1×PBS, 0.05% Tween 20). […] The kinase concentration in the eluates was measured by qPCR. […]

What is called IC50 is the concentration that gives 50% inhibition. The low end stands for higher potency, the high end for lower potency.

On to `CC(C)NC(=O)Oc1ccc2c(=O)cc(-c3ccc(CCCC[P+](c4ccccc4)(c4ccccc4)c4ccccc4)cc3)oc2c1O` [SND127, 4-[4-[7-(Isopropylcarbamoyloxy)-8-hydroxy-4-oxo-chromen-2-yl]phenyl]butyltriphenylphosphonium bromide], for which the half-maximal inhibitory concentration (IC50) in assay [1] was < 20 µM.
For the molecule `CCNC(=O)Oc1ccc2c(=O)cc(-c3ccc(CCCC[P+](c4ccccc4)(c4ccccc4)c4ccccc4)cc3)oc2c1OC(=O)NCC.[Br-]` [SND124, 4-[4-[7,8-Bis(ethylcarbamoyloxy)-4-oxo-chromen-2-yl]phenyl]-butyltriphenylphosphonium bromide], the IC50 was < 20 µM in assay [2]; < 20 µM in assay [1]; < 20 µM in assay [3]; < 10 µM in assay [4]; < 20 µM in assay [5].
As for `O=c1cc(-c2ccc(CCCC[P+](c3ccccc3)(c3ccccc3)c3ccccc3)cc2)oc2c(O)c(O)ccc12` [SND118, 4-[4-(7,8-dihydroxy-4-oxo-chromen-2-yl)phenyl]butyltriphenyl-phosphonium bromide], the No. responsive kinases in assay [6] came out at 1.
As to `CCNC(=O)Oc1ccc2c(=O)cc(-c3ccc(CCCC[P+](c4ccccc4)(c4ccccc4)c4ccccc4)cc3)oc2c1O.[Br-]` [SND126A, 4-[4-[7-(Ethylcarbamoyloxy)-8-hydroxy-4-oxo-chromen-2-yl]phenyl]butyltriphenylphosphonium bromide], the IC50 in assay [2] was < 20 µM; in assay [1] it was < 20 µM; in assay [3] it was < 20 µM; in assay [4], < 10 µM; in assay [5], < 20 µM.
Consider `O=c1cc(-c2ccc(CCCC[P+](c3ccccc3)(c3ccccc3)c3ccccc3)cc2)oc2c3c(ccc12)OCO3.[Br-]` [SND123, 4-[4-(6-oxo-[1,3]dioxolo[4,5-h]chromen-8-yl)phenyl]butyl-triphenylphosphonium bromide], for which the IC50 in assay [2] is < 20 µM; in assay [1] it was < 20 µM; in assay [3] it was < 20 µM; in assay [4], < 10 µM; in assay [5], < 20 µM. The same molecule gave a No. responsive kinases in assay [6] of 4.
`COc1c(O)ccc2c(=O)cc(-c3ccc(CCCC[P+](c4ccccc4)(c4ccccc4)c4ccccc4)cc3)oc12.[Br-]` [SND140, (4-(4-(7-hydroxy-8-methoxy-4-oxo-4H-chromen-2-yl)phenyl)butyl)triphenylphosphonium bromide]: the IC50 in assay [2] was < 20 µM; in assay [1], < 20 µM; in assay [3], < 20 µM; in assay [4], < 10 µM; in assay [5], < 20 µM. The molecule also yielded a No. responsive kinases in assay [6] of 4.

Values taken from patent US20240209011A1, “HETEROAROMATIC PHOSPHONIUM SALTS FOR TREATING CANCER” (FLORATEK PHARMA S.A., priority 2021, published 2024).
